Results reported in patent publication US8633183B2 (priority 2010, dated 2014).

Biological target: PI3Kalpha (Homo sapiens (Human), UniProt P42336)
Settings: read-out: IC50 PI3K

PI3Kalpha, sequence (P42336 whole entry, looked up): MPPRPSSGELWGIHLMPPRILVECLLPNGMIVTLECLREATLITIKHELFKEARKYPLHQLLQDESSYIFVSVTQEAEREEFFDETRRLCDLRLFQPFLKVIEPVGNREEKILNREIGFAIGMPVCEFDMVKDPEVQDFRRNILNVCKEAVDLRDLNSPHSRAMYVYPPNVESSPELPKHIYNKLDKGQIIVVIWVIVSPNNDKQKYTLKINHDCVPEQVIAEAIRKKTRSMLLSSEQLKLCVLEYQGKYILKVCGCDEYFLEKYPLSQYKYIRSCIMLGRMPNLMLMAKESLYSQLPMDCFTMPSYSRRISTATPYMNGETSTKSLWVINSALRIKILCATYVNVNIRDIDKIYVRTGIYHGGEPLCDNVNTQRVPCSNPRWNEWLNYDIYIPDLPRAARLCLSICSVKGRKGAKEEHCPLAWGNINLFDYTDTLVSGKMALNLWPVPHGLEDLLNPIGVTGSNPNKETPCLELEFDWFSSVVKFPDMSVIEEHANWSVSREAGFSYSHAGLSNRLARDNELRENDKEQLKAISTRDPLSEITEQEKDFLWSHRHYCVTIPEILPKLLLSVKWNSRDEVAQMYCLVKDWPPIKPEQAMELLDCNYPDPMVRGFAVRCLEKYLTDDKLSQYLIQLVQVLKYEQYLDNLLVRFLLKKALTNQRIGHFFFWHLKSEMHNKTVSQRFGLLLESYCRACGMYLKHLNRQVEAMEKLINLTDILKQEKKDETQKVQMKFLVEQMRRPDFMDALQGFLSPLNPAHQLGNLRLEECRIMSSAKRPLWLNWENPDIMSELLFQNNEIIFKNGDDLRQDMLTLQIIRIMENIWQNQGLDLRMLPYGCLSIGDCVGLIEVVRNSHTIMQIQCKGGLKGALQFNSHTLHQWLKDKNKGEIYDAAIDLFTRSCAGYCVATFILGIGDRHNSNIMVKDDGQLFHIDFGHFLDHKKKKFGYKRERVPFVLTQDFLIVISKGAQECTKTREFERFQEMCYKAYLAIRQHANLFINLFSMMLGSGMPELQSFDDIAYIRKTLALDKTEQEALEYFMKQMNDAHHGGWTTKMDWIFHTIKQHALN

Going from CCc1ncnc(-c2ccc(C(=O)N3CCC[C@H]3CO)c(F)c2)c1C#Cc1ccc(N)nc1 [Example E-17] to CCc1ncnc(-c2ccc(C(=O)N3CCCC(O)C3)c(Cl)c2)c1C#Cc1ccc(N)nc1 (centres unmarked) [Example E-29], the IC50 falls from 136 nM to 65 nM (2.1-fold).

Compared with CCc1ncnc(-c2ccc(C(=O)N3CCN(CC4CC4)CC3)c(Cl)c2)c1C#Cc1ccc(N)nc1 [Example E-18], CCc1ncnc(-c2ccc(C(=O)N3CCN(CC4CC4)CC3)c(C)c2)c1C#Cc1ccc(N)nc1 [Example E-116] is 2.1-fold lower in IC50: 228 nM for the first, 110 nM for the second. The second is the more potent here.

CCc1ncnc(-c2ccc(C(=O)N3CCC4(CC3)OCCCO4)c(Cl)c2)c1C#Cc1ccc(N)nc1 [Example E-19] and CCc1ncnc(-c2ccc(C(=O)N3CCCOCC3)c(Cl)c2)c1C#Cc1ccc(N)nc1 [Example E-39] are within 1.5-fold of each other in IC50: 90.5 nM for the first, 65.3 nM for the second.

CCc1ncnc(-c2ccc(C(=O)N3CCC(C(C)(C)O)CC3)c(Cl)c2)c1C#Cc1ccc(N)nc1 [Example E-20] and CCc1ncnc(-c2ccc(C(=O)N3CCC(C(C)(C)O)CC3)c(C)c2)c1C#Cc1ccc(N)nc1 [Example E-87] are within 1.5-fold of each other in IC50: 101 nM for the first, 78.8 nM for the second.

First: CCc1ncnc(-c2ccc(C(=O)N3CCC(C4CCN(C)CC4)CC3)c(Cl)c2)c1C#Cc1ccc(N)nc1 [Example E-21]
Second: CCc1ncnc(-c2ccc(C(=O)N3CCC(N4CCN(C)CC4)CC3)c(Cl)c2)c1C#Cc1ccc(N)nc1 [Example E-70]
The IC50 of the first is 2.7-fold higher: 374 nM for the first, 137 nM for the second. The second is the more potent here.

Compared with CCc1ncnc(-c2ccc(C(=O)NC3CCCN(C)C3)c(Cl)c2)c1C#Cc1ccc(N)nc1 (centres unmarked) [Example E-22], CCc1ncnc(-c2ccc(C(=O)N3CCCC(N(C)C)C3)c(Cl)c2)c1C#Cc1ccc(N)nc1 (centres unmarked) [Example E-75] is 1.9-fold lower in IC50: 510 nM for the first, 275 nM for the second.

First: CCc1ncnc(-c2ccc(C(=O)N3CCC(OC)CC3)c(Cl)c2)c1C#Cc1ccc(N)nc1 [Example E-24]
Second: CCc1ncnc(-c2ccc(C(=O)N3CCC(O)CC3)c(Cl)c2)c1C#Cc1ccc(N)nc1 [Example E-38]
The IC50 of the first is 1.8-fold higher: 93.5 nM for the first, 52.9 nM for the second.

Compared with CCc1ncnc(-c2ccc(C(=O)N3CCC(C)(O)CC3)c(Cl)c2)c1C#Cc1ccc(N)nc1 [Example E-25], CCc1ncnc(-c2ccc(C(=O)N3CCNCC3)c(Cl)c2)c1C#Cc1ccc(N)nc1 [Example E-34] is 2.1-fold higher in IC50: 76.8 nM for the first, 164 nM for the second.

CCc1ncnc(-c2ccc(C(=O)N3CCC4(CCN(C)CC4)CC3)c(Cl)c2)c1C#Cc1ccc(N)nc1 [Example E-26] and CCc1ncnc(-c2ccc(C(=O)N3CCC4(CCN(C)CC4)CC3)c(C)c2)c1C#Cc1ccc(N)nc1 [Example E-97] are within 1.5-fold of each other in IC50: 498 nM for the first, 367 nM for the second.

CCc1ncnc(-c2ccc(C(=O)N3CC[C@H](O)C3)c(Cl)c2)c1C#Cc1ccc(N)nc1 [Example E-27] and CCc1ncnc(-c2ccc(C(=O)N3CC[C@@H](O)C3)c(Cl)c2)c1C#Cc1ccc(N)nc1 [Example E-28] are within 1.5-fold of each other in IC50: 58.3 nM for the first, 65.6 nM for the second.

CCc1ncnc(-c2ccc(C(=O)N(C)O)c(Cl)c2)c1C#Cc1ccc(N)nc1 [Example E-35] and CCc1ncnc(-c2ccc(C(=O)N(C)OC)c(Cl)c2)c1C#Cc1ccc(N)nc1 [Example E-79] are within 1.5-fold of each other in IC50: 67.4 nM for the first, 50 nM for the second.

Going from CCc1ncnc(-c2ccc(C(=O)N3CCCN(C)CC3)c(Cl)c2)c1C#Cc1ccc(N)nc1 [Example E-36] to CCc1ncnc(-c2ccc(C(=O)N3CCOCC3)c(Cl)c2)c1C#Cc1ccc(N)nc1 [Example E-72], the IC50 falls from 405 nM to 66.5 nM (6.1-fold). The second is the more potent here.

Going from CCc1ncnc(-c2ccc(C(=O)N3CCN(c4ccncc4)CC3)c(Cl)c2)c1C#Cc1ccc(N)nc1 [Example E-37] to CCc1ncnc(-c2ccc(C(=O)N3CCN(S(=O)(=O)CC)CC3)c(Cl)c2)c1C#Cc1ccc(N)nc1 [Example E-81], the IC50 falls from 209 nM to 39.5 nM (5.3-fold). The second is the more potent here.

Compared with CCc1ncnc(-c2ccc(C(=O)N3CCC4(CCN(C)C4)C3)c(Cl)c2)c1C#Cc1ccc(N)nc1 (centres unmarked) [Example E-40], CCc1ncnc(-c2ccc(C(=O)N3CCC4(CCN(C)C4)C3)c(C)c2)c1C#Cc1ccc(N)nc1 (centres unmarked) [Example E-112] is 2.1-fold lower in IC50: 514 nM for the first, 249 nM for the second.

Going from CCc1ncnc(-c2ccc(C(=O)NCC3(C)COC3)c(Cl)c2)c1C#Cc1ccc(N)nc1 [Example E-41] to CCc1ncnc(-c2ccc(C(=O)NCCN3CCOCC3)c(Cl)c2)c1C#Cc1ccc(N)nc1 [Example E-84], the IC50 rises from 66 nM to 113 nM (1.7-fold). The first is the more potent here.

Going from CCCCN1CCN(C(=O)c2ccc(-c3ncnc(CC)c3C#Cc3ccc(N)nc3)cc2OC)CC1 [Example E-43] to CCCCN1CCN(C(=O)c2ccc(-c3ncnc(CC)c3C#Cc3ccc(N)nc3)cc2C)CC1 [Example E-86], the IC50 falls from 502 nM to 147 nM (3.4-fold). The second is the more potent here.

CCc1ncnc(-c2ccc(C(=O)N3CCC(C(C)(C)O)CC3)c(OC)c2)c1C#Cc1ccc(N)nc1 [Example E-44] and CCc1ncnc(-c2ccc(C(=O)N3CCC(N(C)C)CC3)c(OC)c2)c1C#Cc1ccc(N)nc1 [Example E-59] are within 1.5-fold of each other in IC50: 232 nM for the first, 294 nM for the second.

First: CCc1ncnc(-c2ccc(C(=O)N3CCC(N4CCN(C)CC4)CC3)c(OC)c2)c1C#Cc1ccc(N)nc1 [Example E-45]
Second: CCc1ncnc(-c2ccc(C(=O)N3CCN(C4CCCC4)CC3)c(OC)c2)c1C#Cc1ccc(N)nc1 [Example E-68]
The IC50 of the first is 4.3-fold lower: 96.9 nM for the first, 412 nM for the second. The first is the more potent here.

Going from CCc1ncnc(-c2ccc(C(=O)N3CCCC(O)C3)c(OC)c2)c1C#Cc1ccc(N)nc1 (centres unmarked) [Example E-46] to CCc1ncnc(-c2ccc(C(=O)N3CCCC(N(C)C)C3)c(OC)c2)c1C#Cc1ccc(N)nc1 (centres unmarked) [Example E-51], the IC50 rises from 104 nM to 205 nM (2-fold).

Going from CCc1ncnc(-c2ccc(C(=O)N3CCOCC3)c(OC)c2)c1C#Cc1ccc(N)nc1 [Example E-48] to CCc1ncnc(-c2ccc(C(=O)N3CCOCC3)c(C)c2)c1C#Cc1ccc(N)nc1 [Example E-92], the IC50 falls from 100 nM to 59.5 nM (1.7-fold).

CCc1ncnc(-c2ccc(C(=O)N3CC(O)CO3)c(OC)c2)c1C#Cc1ccc(N)nc1 (centres unmarked) [Example E-49] and CCc1ncnc(-c2ccc(C(=O)N3CC(O)CO3)c(C)c2)c1C#Cc1ccc(N)nc1 (centres unmarked) [Example E-93] are within 1.5-fold of each other in IC50: 74.5 nM for the first, 107 nM for the second.

CCc1ncnc(-c2ccc(C(=O)N3CCCO3)c(OC)c2)c1C#Cc1ccc(N)nc1 [Example E-50] and CCc1ncnc(-c2ccc(C(=O)N3CCCO3)c(C)c2)c1C#Cc1ccc(N)nc1 [Example E-94] are within 1.5-fold of each other in IC50: 157 nM for the first, 146 nM for the second.

Compared with CCc1ncnc(-c2ccc(C(=O)N3CCC(N4CCC(C)CC4)C3)c(OC)c2)c1C#Cc1ccc(N)nc1 (centres unmarked) [Example E-52], CCc1ncnc(-c2ccc(C(=O)N3CCC(N4CCC(C)CC4)C3)c(Cl)c2)c1C#Cc1ccc(N)nc1 (centres unmarked) [Example E-76] is 2.5-fold lower in IC50: 578 nM for the first, 233 nM for the second. The second is the more potent here.

First: CCc1ncnc(-c2ccc(C(=O)N3CCN(C4CCS(=O)(=O)C4)CC3)c(OC)c2)c1C#Cc1ccc(N)nc1 (centres unmarked) [Example E-54]
Second: CCc1ncnc(-c2ccc(C(=O)N3CCN4CCCCC4C3)c(OC)c2)c1C#Cc1ccc(N)nc1 (centres unmarked) [Example E-57]
The IC50 of the first is 1.7-fold lower: 165 nM for the first, 280 nM for the second.

Compared with CCc1ncnc(-c2ccc(C(=O)N3CC[C@H](N(C)C)C3)c(OC)c2)c1C#Cc1ccc(N)nc1 [Example E-55], CCc1ncnc(-c2ccc(C(=O)N(C)OC)c(OC)c2)c1C#Cc1ccc(N)nc1 [Example E-60] is 2.1-fold lower in IC50: 148 nM for the first, 69.4 nM for the second. The second is the more potent here.

CCc1ncnc(-c2ccc(C(=O)N3CCC(N4CCCCCC4)CC3)c(OC)c2)c1C#Cc1ccc(N)nc1 [Example E-58] and CCc1ncnc(-c2ccc(C(=O)N3CCC(N4CCCCCC4)CC3)c(C)c2)c1C#Cc1ccc(N)nc1 [Example E-102] are within 1.5-fold of each other in IC50: 253 nM for the first, 289 nM for the second.

Compared with CCc1ncnc(-c2ccc(C(=O)N(C)C3CCS(=O)(=O)C3)c(OC)c2)c1C#Cc1ccc(N)nc1 (centres unmarked) [Example E-61], CCc1ncnc(-c2ccc(C(=O)N(C)C3CCS(=O)(=O)C3)c(C)c2)c1C#Cc1ccc(N)nc1 (centres unmarked) [Example E-105] is 2-fold lower in IC50: 103 nM for the first, 51.7 nM for the second. The second is the more potent here.

Going from CCOC(=O)N1CCN(C(=O)c2ccc(-c3ncnc(CC)c3C#Cc3ccc(N)nc3)cc2OC)CC1 [Example E-62] to CCOC(=O)N1CCN(C(=O)c2ccc(-c3ncnc(CC)c3C#Cc3ccc(N)nc3)cc2C)CC1 [Example E-107], the IC50 falls from 246 nM to 62.9 nM (3.9-fold).

CCc1ncnc(-c2ccc(C(=O)NCCN3CCOCC3)c(OC)c2)c1C#Cc1ccc(N)nc1 [Example E-64] and CCc1ncnc(-c2ccc(C(=O)N(C)CCN3CCCC3=O)c(OC)c2)c1C#Cc1ccc(N)nc1 [Example E-65] are within 1.5-fold of each other in IC50: 118 nM for the first, 88 nM for the second.

Going from CCc1ncnc(-c2ccc(C(=O)N3CCC4(CCN(C)C4)C3)c(OC)c2)c1C#Cc1ccc(N)nc1 (centres unmarked) [Example E-66] to CCc1ncnc(-c2ccc(C(=O)N3CCN(CC4CCCCC4)CC3)c(OC)c2)c1C#Cc1ccc(N)nc1 [Example E-67], the IC50 rises from 662 nM to 3050 nM (4.6-fold).

First: CCc1ncnc(-c2ccc(C(=O)N3CCN(Cc4ccccc4)CC3)c(OC)c2)c1C#Cc1ccc(N)nc1 [Example E-69]
Second: CCc1ncnc(-c2ccc(C(=O)N3CCN(Cc4ccccc4)CC3)c(C)c2)c1C#Cc1ccc(N)nc1 [Example E-115]
The IC50 of the first is 2.7-fold higher: 415 nM for the first, 154 nM for the second.

Going from CCc1ncnc(-c2ccc(C(=O)N3CCC(N4CCOCC4)CC3)c(Cl)c2)c1C#Cc1ccc(N)nc1 [Example E-71] to CCc1ncnc(-c2ccc(C(=O)N3CCC(N4CCOCC4)CC3)c(C)c2)c1C#Cc1ccc(N)nc1 [Example E-91], the IC50 rises from 99.9 nM to 179 nM (1.8-fold). The first is the more potent here.

First: CCc1ncnc(-c2ccc(C(=O)N3CC(O)CO3)c(Cl)c2)c1C#Cc1ccc(N)nc1 (centres unmarked) [Example E-73]
Second: CCc1ncnc(-c2ccc(C(=O)N3CCCO3)c(Cl)c2)c1C#Cc1ccc(N)nc1 [Example E-74]
The IC50 of the first is 1.6-fold higher: 88.3 nM for the first, 53.9 nM for the second.

CCc1ncnc(-c2ccc(C(=O)N(C)C3CCS(=O)(=O)C3)c(Cl)c2)c1C#Cc1ccc(N)nc1 (centres unmarked) [Example E-80] and CCc1ncnc(-c2ccc(C(=O)N(C)CCN3CCCC3=O)c(Cl)c2)c1C#Cc1ccc(N)nc1 [Example E-85] are within 1.5-fold of each other in IC50: 48.2 nM for the first, 56.4 nM for the second.

CCOC(=O)N1CCN(C(=O)c2ccc(-c3ncnc(CC)c3C#Cc3ccc(N)nc3)cc2Cl)CC1 [Example E-82] and CCc1ncnc(-c2ccc(C(=O)N3CCN(C(C)=O)CC3)c(C)c2)c1C#Cc1ccc(N)nc1 [Example E-108] are within 1.5-fold of each other in IC50: 81.7 nM for the first, 71.5 nM for the second.

First: CCc1ncnc(-c2ccc(C(=O)N3CCN(C4CCOCC4)CC3)c(C)c2)c1C#Cc1ccc(N)nc1 [Example E-88]
Second: CCc1ncnc(-c2ccc(C(=O)N3CCC(N4CCCCC4)CC3)c(C)c2)c1C#Cc1ccc(N)nc1 [Example E-109]
The IC50 of the first is 3.1-fold lower: 84.4 nM for the first, 259 nM for the second. The first is the more potent here.

Compared with CCc1ncnc(-c2ccc(C(=O)N(C)OC)c(C)c2)c1C#Cc1ccc(N)nc1 [Example E-104], CCc1ncnc(-c2ccc(C(=O)N3CCN(CC4CCCCC4)CC3)c(C)c2)c1C#Cc1ccc(N)nc1 [Example E-113] is 5.8-fold higher in IC50: 71.9 nM for the first, 414 nM for the second.
